The structures appear in SMILES notation. Entries after “also recorded” stand apart in the source; their conditions may differ.

For one data set, the system named is total secreted protein. Put plainly: Coomassie stain of medium for total secreted protein. In kind it is cell-based. As to conditions: Coomassie stain of medium of CF-treated cells. How it is done:
Cultured immortalized hepatocytes known to express and secrete PCSK9 (Lebeau, P., et al., 2017), including HuH7 and HepG2 cells, as well as primary mouse- and human-hepatocytes (PMH and PHH, respectively), were treated with CF for 24 h and assessed for PCSK9 expression via immunoblots and real-time PCR (FIG. 1 A to D). […] Given that sterol deprivation represents another well-established promoter of SREBP2 activation (Lebeau, P., et al., 2017), cells were also treated with CF in the presence and absence of U18666A (U18) that depletes intracellular sterols. […] Next, HepG2 cells were treated with an increasing dose of CF.

For data set [1], the system named is HMGR, SREBP1, hepatocyte nuclear factor 1α. Put plainly: mRNA expression of HMGR, SREBP1 and hepatocyte nuclear factor 1α in hepatocytes. Type of data set: cell-based, mouse. The method, then: (§1) RNA purification/isolation was performed using RNeasy mini kits (Qiagen) and normalized to 2 μg RNA using a NanoDrop® spectrophotometer. Samples were then reverse transcribed into cDNA using Superscript Vilo cDNA Synthesis kit (Thermofisher Scientific). Real-time PCR was executed with Fast SYBR Green (Thermo Fisher Scientific) using the ΔΔct method on the ViiA7 real-time PCR platform (Thermofisher Scientific).
Therefore, the effect of CF on TG-; induced SREBP2 activation was examined. […] SREBP2 activity was then examined at the protein level in HuH7 cells transfected with a plasmid encoding GFP driven by the sterol regulatory element (SRE-GFP; FIG. 2E to G). […] GFP expression was also visualized via immunofluorescent staining and quantified using ImageJ Software.

The next data set deals with AMPK. Description: AMPK phosphorylation in livers of CF-treated mice. In kind it is in vivo, mouse. The following applies: C57BL/6J mice, CF 100 mg/kg, 8 hours. The method, then: (§2) All animal studies were carried out in 8 h-fasted male wild-type, Pcsk9^−/− or Ampkβ1^−/− mice on the C57BL/6J background. CF (25-100 mg/kg-8 h) and CDN (50 mg/kg) treatments were administered via intraperitoneal injection unless specified otherwise. Primary mouse hepatocytes were isolated using a two-step process with EGTA ([…] in HEPES buffer, Sigma Aldrich) and collagenase (0.05% in HEPES buffer, Sigma Aldrich) in 12-week-old male mice on the C57BL/6J background. Cells were then washed, centrifuged, and plated following isolation in cell strainers. Hepatosure® 100-donor pooled primary human hepatocytes were purchased from Xenotech. Primary hepatocytes were regularly grown in William's E medium (Gibco, Thermo Fisher Scientific) containing 10% fetal bovine serum, 100 IU/ml penicillin, and 100 µg/ml streptomycin.
Previous studies have also shown that CF can promote the phosphorylation and activation of AMPK (Quan, H. Y., et al., 2013; Tsuda, S., et al., 2015), a liver-expressed kinase known to induce the inhibitory phosphorylation of SREBP1c (Li, Y., et al., 2011). […] Primary mouse hepatocytes were then isolated from wildtype (WT) and Ampkβ1−/− mice (Dzamko, N., et al., 2010).

The test system of the next data set is cytosolic Ca^2+ levels. Put plainly: Cytosolic Ca2+ in hepatocytes (Fura-2-AM). Type of data set: cell-based, human. The following applies: immortalized HuH7 hepatocytes, listed as CF. The method, then:
Intracellular Ca^2+ in Huh7 and HepG2 cells was measured using a high-affinity Ca^2+ indicator, Fura-2-AM (Thermofisher Scientific). ER Ca^2+ levels were assessed using the low-affinity Ca^2+ indicator, Mag-Fluo-4, and via transfection of cells with D1ER. The D1ER plasmid encodes an ER-resident calcium binding protein linked to a fluorescent protein and increases in fluorescence intensity upon Ca^2+ binding (7). […] Cells were then washed and incubated with Fura-2-AM (2 μM) or Mag-Fluo-4 (2 μM) for 45 minutes at 37° C. in HBSS containing 20 mM HEPES and 2% pluronic acid v/v (Thermofisher Scientific).
To test this hypothesis, cytosolic Ca^2+ levels in CF-treated cells were first examined using the high-affinity fluorescent Ca^2+ indicator, Fura-2-AM. […] The fluorescence intensity of cells treated with CF and control agents, TG and CDN, was assessed using a fluorescent spectrophotometer and visualized using a fluorescent microscope (FIG. 6 A). […] ER Ca^2+ content was also assessed indirectly with the high affinity Ca^2+ dye, fura-2-AM (FIG. 6 B).

Another data set has as its system LDLR. Put plainly: LDLR / CD36 expression in cultured hepatocytes. In kind it is cell-based, human.
From the text: Cells were washed in phosphate-buffered saline (PBS), lysed in 4× SDS-PAGE lysis buffer and separated on 7-10% polyacrylamide gels in denaturing conditions. […] Membranes were then exposed to horse radish peroxidase conjugated secondary antibodies and visualized using EZ-ECL chemiluminescent reagent (Froggabio). Band intensities were quantified using ImageJ software ([…]) against membranes reprobed for housekeeping proteins.
Slides were then mounted with permafluor and visualized using the EVOS FL colour imaging system at either 20 or 40× magnification.
as §1
The uptake and accumulation of DiI-LDL was then quantified using a fluorescent spectrophotometer (Molecular Devices). […] Live-cell staining of the LDLR was also performed in HepG2 cells exposed to DiI-LDL (FIG. 11 D).

Data set [2] concerns Pcsk9+/+ and Pcsk9−/− mice. As to conditions: CF 8 h. How it is done:
as §2

For the next data set, the system named is HepG2 hepatocytes. Description: LDH cytotoxicity assay in HepG2 hepatocytes. As to conditions: cultured HepG2 hepatocytes. In kind it is cell-based, human. How it is done: Secreted PCSK9 levels were assessed using ELISAs and mRNA transcript via real-time PCR. […] Secreted PCSK9, as well as PCSK9 mRNA and SREBP2 mRNA were assessed in these cells. (E) The cytotoxicity of these agents was examined using an LDH assay. […] (G) The uptake of DiI-LDL was also quantified in these cells using a spectrophotometer. Values are presented as the mean and error bars as SD. *, p<0.05 vs. vehicle; NS, non-significant.

Consider `Cn1c(=O)c2c(ncn2C)n(C)c1=O` [caffeine, 1,3,7-Trimethylxanthine], for which, in the data set on total secreted protein, the global protein secretion result was “not affecting global protein secretion”. The SREBP1 expression result in data set [1] (PMH) is listed as “blocked the expression”. Also, in data set [1] (absence of TG), the “hepatocyte nuclear factor 1α expression” value is “did not yield a significant difference”. In addition, the HMGR expression entry in data set [1] (mouse hepatocytes) is recorded as “blocked the expression”. The “phosphorylation of AMPK (pAMPK) and pACC in liver” value in the data set on AMPK was “induced the phosphorylation and activation of AMPK”. The “cytosolic Ca^2+ levels” value with cytosolic Ca^2+ levels is on record as “significantly increased cytosolic Ca^2+ levels; also recorded: increases cytosolic Ca^2+ levels”. Besides, the “LDLR mRNA transcript levels” value in the data set on LDLR (HuH7 and HepG2) was “reduced mRNA transcript levels of the LDLR”. Further, the “expression of PCSK9-regulated receptors (LDLR, CD36)” value in the data set with LDLR (cultured hepatocytes, CF 200 μM, immunoblots) is given as “increased the expression of PCSK9-regulated receptors”. Also, the “hepatic and serum DiI fluorescence in Pcsk9−/− mice” value in data set [2] is on record as “failed to affect these parameters”. In addition, the “cytotoxicity (LDH assay)” value with HepG2 hepatocytes is recorded as “did not exhibit cytotoxic properties”.

Source of the values: patent US20260151398A1, “COMPOUNDS FOR REDUCING CHOLESTEROL AND TREATING LIVER AND KIDNEY DISEASE” (McMaster University, priority 2021, published 2026).
